pIC50: −log10 of the molar value. Where two headings read alike, the source gives them in different places.
What was measured:
adenosine A2A receptor = adenosine A2A receptor (Homo sapiens (Human), UniProt P29274); test: Adenosine receptor activity assay (Table 1), A2A activity; type: biochemical; conditions: read-out: Ave A2A cAMP IC50
adenosine A1 receptor [1] = target: T1, adenosine A1 receptor (Homo sapiens (Human), UniProt P30542); test: Adenosine receptor activity assay (Table 1), A1 cAMP; type: cell-based
T1 sequence (P30542 whole entry): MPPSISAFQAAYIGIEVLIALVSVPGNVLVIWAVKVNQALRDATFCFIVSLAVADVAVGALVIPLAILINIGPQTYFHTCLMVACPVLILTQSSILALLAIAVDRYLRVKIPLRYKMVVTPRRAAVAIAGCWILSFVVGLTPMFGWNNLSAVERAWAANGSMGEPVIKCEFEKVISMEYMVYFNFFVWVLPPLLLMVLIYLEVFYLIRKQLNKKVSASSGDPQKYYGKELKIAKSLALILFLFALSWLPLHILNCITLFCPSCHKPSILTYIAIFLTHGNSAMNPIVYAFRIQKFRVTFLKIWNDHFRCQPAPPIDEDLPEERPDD

adenosine A2B receptor = adenosine A2B receptor (Homo sapiens (Human), UniProt P29275); test: Adenosine receptor activity assay (Table 1), A2B activity; type: biochemical; conditions: for pIC50: read-out: Ave A2B cAMP IC50
Sequence of adenosine A2B receptor (P29275 whole entry): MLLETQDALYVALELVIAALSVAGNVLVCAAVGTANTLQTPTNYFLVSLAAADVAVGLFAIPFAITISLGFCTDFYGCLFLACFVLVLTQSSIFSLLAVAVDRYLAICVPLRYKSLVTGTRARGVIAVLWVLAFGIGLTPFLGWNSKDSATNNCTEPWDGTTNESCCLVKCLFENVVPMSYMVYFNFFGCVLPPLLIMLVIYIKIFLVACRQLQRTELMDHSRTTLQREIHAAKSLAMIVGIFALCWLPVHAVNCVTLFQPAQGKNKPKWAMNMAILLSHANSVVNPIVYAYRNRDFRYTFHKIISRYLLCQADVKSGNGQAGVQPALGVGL

adenosine A3 receptor [2] = target: T2, adenosine A3 receptor (Homo sapiens (Human), UniProt P0DMS8); test: Adenosine receptor activity assay (Table 1), A3 cAMP; type: cell-based
T2 sequence (P0DMS8 whole entry): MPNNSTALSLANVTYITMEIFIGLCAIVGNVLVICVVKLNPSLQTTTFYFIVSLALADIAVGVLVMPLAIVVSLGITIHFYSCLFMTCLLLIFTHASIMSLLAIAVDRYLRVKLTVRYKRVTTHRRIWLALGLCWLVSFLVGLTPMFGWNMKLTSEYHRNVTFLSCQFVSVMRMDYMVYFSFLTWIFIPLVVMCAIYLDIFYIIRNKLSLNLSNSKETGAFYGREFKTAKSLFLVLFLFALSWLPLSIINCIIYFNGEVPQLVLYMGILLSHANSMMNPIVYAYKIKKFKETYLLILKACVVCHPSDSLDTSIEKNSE

adenosine A1 receptor [3] = target: T1, adenosine A1 receptor; test: Adenosine receptor activity assay (Table 1), A1 cAMP; type: biochemical
Experimental: (§1) Table 1. Compounds (e.g., Adenosine Receptor modulators) and activity assay results. The legend is as follows: A=<10 nM; B=10-50 nM; C=50-100 nM; D=100-500; and E=>500 nM. The ratio corresponds to the A2A activity to the A2B activity; or A2A/A2B.

adenosine A3 receptor [4] = target: T2, adenosine A3 receptor; test: Adenosine receptor activity assay (Table 1), A3 cAMP; type: biochemical
Experimental: as §1

[5] = A2A activity to A2B activity (A2A/A2B)
[6] = A2A activity to the A2B activity, A2A/A2B

Sequence of adenosine A2A receptor (P29274 whole entry): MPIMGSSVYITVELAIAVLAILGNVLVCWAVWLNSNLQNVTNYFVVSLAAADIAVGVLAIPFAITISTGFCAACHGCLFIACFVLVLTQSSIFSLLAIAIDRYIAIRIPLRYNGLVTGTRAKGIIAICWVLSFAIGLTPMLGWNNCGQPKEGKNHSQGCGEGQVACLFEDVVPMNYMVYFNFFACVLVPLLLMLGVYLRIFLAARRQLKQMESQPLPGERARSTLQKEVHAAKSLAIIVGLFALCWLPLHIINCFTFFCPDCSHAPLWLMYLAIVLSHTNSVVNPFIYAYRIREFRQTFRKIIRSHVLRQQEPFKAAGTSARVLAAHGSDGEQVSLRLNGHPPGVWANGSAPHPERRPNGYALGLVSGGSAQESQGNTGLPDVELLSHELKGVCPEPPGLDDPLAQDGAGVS

| Molecule | pIC50 (adenosine A2A receptor) | pIC50 (adenosine A1 receptor [1]) | Ratio (adenosine A2B receptor; [5]) | pIC50 (adenosine A2B receptor) | pIC50 (adenosine A3 receptor [2]) | pIC50 (adenosine A1 receptor [3]) | pIC50 (adenosine A3 receptor [4]) | Ratio (adenosine A2B receptor; [6]) |
| --- | --- | --- | --- | --- | --- | --- | --- | --- |
| CC(C)NC(=O)c1nc(N[C@@H](C)c2ccccn2)nc2ccsc12 [Example Z199, (S)—N-Isopropyl-2-((1-(pyridin-2-yl)ethyl)amino)thieno[3,2-d]pyrimidine-4-carboxamide] | 7.30 to 8.00 | < 6.30 | 3.51 | > 8.00 | 7.00 to 7.30 | – | – | – |
| C[C@H](Nc1nc(C(=O)NC(C)(C)C)c2sccc2n1)c1ccccn1 [Example Z201, (S)—N-(tert-Butyl)-2-((1-(pyridin-2-yl)ethyl)amino)thieno[3,2-d]pyrimidine-4-carboxamide] | 7.00 to 7.30 | 7.00 to 7.30 | 2.22 | 7.30 to 8.00 | 7.00 to 7.30 | – | – | – |
| CNc1cc2nc(N[C@@H](C)c3ccccn3)nc(C(=O)N3CC(O)C3)c2s1 [Example Z221, (S)-(3-Hydroxyazetidin-1-yl)(6-(methylamino)-2-((1-(pyridin-2-yl)ethyl)amino)thieno[3,2-d]pyrimidin-4-yl)methanone] | < 6.30 | < 6.30 | 52.95 | 7.30 to 8.00 | 7.00 to 7.30 | – | – | – |
| CNc1cc2nc(N[C@@H](C)c3ccccn3)nc(C(=O)NCCO)c2s1 [Example Z222, (S)—N-(2-Hydroxyethyl)-6-(methylamino)-2-((1-(pyridin-2-yl)ethyl)amino)thieno[3,2-d]pyrimidine-4-carboxamide] | < 6.30 | < 6.30 | 44.93 | 7.30 to 8.00 | < 6.30 | – | – | – |
| C[C@H](Nc1nc(C(=O)N2CCCC2)c2sc(N)cc2n1)c1cncc(F)c1 [Example Z223, (S)-(6-Amino-2-((1-(5-fluoropyridin-3-yl)ethyl)amino)thieno[3,2-d]pyrimidin-4-yl)(pyrrolidin-1-yl)methanone] | 6.30 to 7.00 | < 6.30 | 158.10 | > 8.00 | < 6.30 | – | – | – |
| C[C@H](Nc1nc(C(=O)NCC(F)(F)F)c2sccc2n1)c1ccccn1 [Example Z226, (S)-2-((1-(Pyridin-2-yl)ethyl)amino)-N-(2,2,2-trifluoroethyl)thieno[3,2-d]pyrimidine-4-carboxamide] | 7.00 to 7.30 | < 6.30 | 11.22 | > 8.00 | < 6.30 | – | – | – |
| C[C@H](Nc1nc(C(=O)N2CCC2)c2sccc2n1)c1cncc(Cl)c1 [Example Z232, (S)-Azetidin-1-yl(2-((1-(5-chloropyridin-3-yl)ethyl)amino)thieno[3,2-d]pyrimidin-4-yl)methanone] | 6.30 to 7.00 | < 6.30 | 60.88 | > 8.00 | < 6.30 | – | – | – |
| COC1CN(C(=O)c2nc(N[C@@H](C)c3cncc(Cl)c3)nc3ccsc23)C1 [Example Z233, (S)-(2-((1-(5-Chloropyridin-3-yl)ethyl)amino)thieno[3,2-d]pyrimidin-4-yl)(3-methoxyazetidin-1-yl)methanone] | 6.30 to 7.00 | < 6.30 | 51.97 | > 8.00 | < 6.30 | – | – | – |
| C[C@H](Nc1nc(C(=O)N2CC[C@@H](F)C2)c2sccc2n1)c1cncc(F)c1 [Example Z234, (2-(((S)-1-(5-Fluoropyridin-3-yl)ethyl)amino)thieno[3,2-d]pyrimidin-4-yl)((R)-3-fluoropyrrolidin-1-yl)methanone] | 6.30 to 7.00 | < 6.30 | 58.04 | > 8.00 | < 6.30 | – | – | – |
| C[C@H](Nc1nc(C(=O)N2CC[C@H](O)C2)c2sccc2n1)c1cncc(Cl)c1 [Example Z236, (2-(((S)-1-(5-Chloropyridin-3-yl)ethyl)amino)thieno[3,2-d]pyrimidin-4-yl)((S)-3-hydroxypyrrolidin-1-yl)methanone] | < 6.30 | < 6.30 | 57.61 | 7.30 to 8.00 | < 6.30 | – | – | – |
| C[C@H](Nc1nc(C(=O)N2CC[C@@H](O)C2)c2sccc2n1)c1cncc(Cl)c1 [Example Z237, (2-(((S)-1-(5-Chloropyridin-3-yl)ethyl)amino)thieno[3,2-d]pyrimidin-4-yl)((R)-3-hydroxypyrrolidin-1-yl)methanone] | < 6.30 | < 6.30 | 65.87 | 7.30 to 8.00 | < 6.30 | – | – | – |
| C[C@H](Nc1nc(C(=O)NCC(C)(C)O)c2sccc2n1)c1cncc(F)c1 [Example Z238, (S)-2-((1-(5-Fluoropyridin-3-yl)ethyl)amino)-N-(2-hydroxy-2-methylpropyl)thieno[3,2-d]pyrimidine-4-carboxamide] | 6.30 to 7.00 | < 6.30 | 22.98 | > 8.00 | < 6.30 | – | – | – |
| CC(C)(C)OC(=O)N[C@@H]1CCN(C(=O)c2nc(NCc3cncc(F)c3)nc3ccsc23)C1 [Example Z239, tert-Butyl (R)-(1-(2-(((5-fluoropyridin-3-yl)methyl)amino)thieno[3,2-d]pyrimidine-4-carbonyl)pyrrolidin-3-yl)carbamate] | 6.30 to 7.00 | < 6.30 | 14.97 | > 8.00 | 7.30 to 8.00 | – | – | – |
| CNc1cc2nc(N[C@@H](C)c3cccnc3)nc(C(=O)N3CC(O)C3)c2s1 [Example Z240, (S)-(3-Hydroxyazetidin-1-yl)(6-(methylamino)-2-((1-(pyridin-3-yl)ethyl)amino)thieno[3,2-d]pyrimidin-4-yl)methanone] | < 6.30 | < 6.30 | 23.69 | 7.30 to 8.00 | < 6.30 | – | – | – |
| C[C@H](Nc1nc(C(=O)N2CCC2)c2sc(N)cc2n1)c1cncc(F)c1 [Example Z241, (S)-(6-Amino-2-((1-(5-fluoropyridin-3-yl)ethyl)amino)thieno[3,2-d]pyrimidin-4-yl)(azetidin-1-yl)methanone] | 7.00 to 7.30 | < 6.30 | 78.77 | > 8.00 | < 6.30 | – | – | – |
| C[C@H](Nc1nc(C(=O)N2CC[C@@H](O)C2)c2sc(N)cc2n1)c1cncc(F)c1 [Example Z242, (6-Amino-2-(((S)-1-(5-fluoropyridin-3-yl)ethyl)amino)thieno[3,2-d]pyrimidin-4-yl)((R)-3-hydroxypyrrolidin-1-yl)methanone] | 6.30 to 7.00 | < 6.30 | 45.21 | > 8.00 | < 6.30 | – | – | – |
| CNc1cc2nc(N[C@@H](C)c3cncc(F)c3)nc(C(=O)N3CC(OC)C3)c2s1 [Example Z243, (S)-(2-((1-(5-Fluoropyridin-3-yl)ethyl)amino)-6-(methylamino)thieno[3,2-d]pyrimidin-4-yl)(3-methoxyazetidin-1-yl)methanone] | 6.30 to 7.00 | < 6.30 | 112.45 | > 8.00 | 7.00 to 7.30 | – | – | – |
| Cc1cc2nc(N[C@@H](C)c3cncc(F)c3)nc(C(=O)N3CCN(C(=O)NC(C)C)C3)c2s1 [Example Z593, (S)-3-(2-((1-(5-Fluoropyridin-3-yl)ethyl)amino)-6-methylthieno[3,2-d]pyrimidine-4-carbonyl)-N-isopropylimidazolidine-1-carboxamide] | 7.00 to 7.30 | – | – | 7.30 to 8.00 | – | < 6.30 | < 6.30 | 3.25 |
| C[C@H](Nc1nc(C(=O)N2CC(NC(=O)C(C)(C)C)C2)c2sccc2n1)c1cncc(F)c1 [Example Z594, (S)—N-(1-(2-((1-(5-Fluoropyridin-3-yl)ethyl)amino)thieno[3,2-d]pyrimidine-4-carbonyl)azetidin-3-yl)pivalamide] | > 8.00 | – | – | 7.30 to 8.00 | – | < 6.30 | 7.00 to 7.30 | 0.15 |
| Cc1cc2nc(N[C@@H](C)c3cncc(F)c3)nc(C(=O)N3CC[C@H]3C)c2s1 [Example Z595, (2-(((S)-1-(5-Fluoropyridin-3-yl)ethyl)amino)-6-methylthieno[3,2-d]pyrimidin-4-yl)((R)-2-methylazetidin-1-yl)methanone] | 7.30 to 8.00 | – | – | > 8.00 | – | > 8.00 | > 8.00 | 9.45 |
| Cc1cc2nc(N[C@@H](C)c3cncc(F)c3)nc(C(=O)N3CC[C@@H]3C)c2s1 [Example Z596] | 7.30 to 8.00 | – | – | > 8.00 | – | > 8.00 | > 8.00 | 10.34 |
| Cc1cc2nc(N[C@@H](C)c3cncc(F)c3)nc(C(=O)N3CC[C@@H](CN)C3)c2s1 [Example Z597, ((S)-3-(Aminomethyl)pyrrolidin-1-yl)(2-(((S)-1-(5-fluoropyridin-3-yl)ethyl)amino)-6-methylthieno[3,2-d]pyrimidin-4-yl)methanone] | < 6.30 | – | – | 7.30 to 8.00 | – | > 8.00 | > 8.00 | 99.33 |
| Cc1cc2nc(N[C@@H](C)c3cncc(F)c3)nc(C(=O)N3CC(NC(=O)[C@@H]4CCOC4)C3)c2s1 [Example Z598, (R)—N-(1-(2-(((S)-1-(5-Fluoropyridin-3-yl)ethyl)amino)-6-methylthieno[3,2-d]pyrimidine-4-carbonyl)azetidin-3-yl)tetrahydrofuran-3-carboxamide] | 7.30 to 8.00 | – | – | 7.30 to 8.00 | – | < 6.30 | 6.30 to 7.00 | 0.68 |
| (S)—N-((6-methoxypyridin-2-yl)methyl)-6-methyl-2-((1-(pyridin-2-yl)ethyl)amino)thieno[3,2-d]pyrimidine-4-carboxamide [Example Z464] | 6.30 to 7.00 | – | – | > 8.00 | – | < 6.30 | 7.00 to 7.30 | 19.50 |
